Experimental data as given in publication PMC10304174, “Development of Zeise’s Salt Derivatives Bearing Substituted Acetylsalicylic Acid Substructures as Cytotoxic COX Inhibitors” (Pharmaceutics, 2023).

Assays:
[1] = parameters: method as in doi:10.1002/zaac.19603050315; settings: forms elemental platinum in an internal redox reaction; cited from earlier work
[2] = system: PGE2 synthesis in HT-29 cells; experiment: Inhibition of the PGE2 synthesis in HT-29 cells (PGE2 EIA); assay type: cell-based; settings: 24 h at 37 °C, then 50 µM arachidonic acid 1 h
Procedure: Exponentially growing HT-29 cells were seeded into 24-well plates at a concentration of 5 × 10^4 cells in 500 µL of cell culture medium per well. […] In the next step, the substrate arachidonic acid (Sigma Aldrich, St. Louis, MO, USA) at a concentration of 50 µM was added. After 1 h, the COX-catalyzed PGE2 production was stopped by removing the supernatant from the cells, which was analyzed by EIA (Prostaglandin E2 Kit—Monoclonal, Cayman Chemicals, Ann Arbor, MI, USA) according to the manufacturer’s protocol.
HT-29 cells express both isoenzymes at high levels, allowing COX-1/2 interaction to be studied using an antibody-based PGE2 assay, which quantifies the PGE2 released by the cells into the cell culture medium. All Zeise’s salt derivatives were tested at a concentration of 10 µM (Figure 4).

COX-2 [3] = target: T1, COX-2 (Homo sapiens, UniProt P35354); experiment: COX Inhibitor Screening Assay (EIA) on isolated COX-2 isoenzyme; assay type: biochemical; settings: incubation 10 min
T1 construct: purchased Cayman Chemicals
T1 sequence (P35354 18-604): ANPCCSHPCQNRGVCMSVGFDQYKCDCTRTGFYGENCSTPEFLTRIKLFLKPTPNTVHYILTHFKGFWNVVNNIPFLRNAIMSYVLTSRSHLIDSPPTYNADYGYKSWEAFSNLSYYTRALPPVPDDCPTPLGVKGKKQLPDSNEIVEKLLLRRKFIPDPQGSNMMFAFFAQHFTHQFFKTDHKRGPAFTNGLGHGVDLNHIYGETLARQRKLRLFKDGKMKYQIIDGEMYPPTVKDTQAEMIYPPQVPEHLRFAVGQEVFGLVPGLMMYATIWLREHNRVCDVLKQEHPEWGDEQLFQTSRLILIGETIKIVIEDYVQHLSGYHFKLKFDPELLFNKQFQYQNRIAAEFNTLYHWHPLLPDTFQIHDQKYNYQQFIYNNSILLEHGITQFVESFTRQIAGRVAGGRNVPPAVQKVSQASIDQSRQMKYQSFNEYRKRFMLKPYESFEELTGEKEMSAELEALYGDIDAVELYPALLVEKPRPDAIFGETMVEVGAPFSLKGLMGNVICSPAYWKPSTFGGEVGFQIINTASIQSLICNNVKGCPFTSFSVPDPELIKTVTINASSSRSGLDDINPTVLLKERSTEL
Procedure: (§1) The incubation of the respective complexes with the isoenzymes was exactly 10 min. The values of COX inhibition were calculated as the mean of duplicates and shown as the mean ± SD of ≥2 independent experiments.

COX-1 [4] = target: T2, COX-1 (Ovis aries, UniProt P05979); experiment: COX Inhibitor Screening Assay (EIA) on isolated COX-1 isoenzyme; assay type: biochemical, ovine; settings: incubation 10 min
T2 construct: purchased Cayman Chemicals
T2 sequence (P05979 25-600): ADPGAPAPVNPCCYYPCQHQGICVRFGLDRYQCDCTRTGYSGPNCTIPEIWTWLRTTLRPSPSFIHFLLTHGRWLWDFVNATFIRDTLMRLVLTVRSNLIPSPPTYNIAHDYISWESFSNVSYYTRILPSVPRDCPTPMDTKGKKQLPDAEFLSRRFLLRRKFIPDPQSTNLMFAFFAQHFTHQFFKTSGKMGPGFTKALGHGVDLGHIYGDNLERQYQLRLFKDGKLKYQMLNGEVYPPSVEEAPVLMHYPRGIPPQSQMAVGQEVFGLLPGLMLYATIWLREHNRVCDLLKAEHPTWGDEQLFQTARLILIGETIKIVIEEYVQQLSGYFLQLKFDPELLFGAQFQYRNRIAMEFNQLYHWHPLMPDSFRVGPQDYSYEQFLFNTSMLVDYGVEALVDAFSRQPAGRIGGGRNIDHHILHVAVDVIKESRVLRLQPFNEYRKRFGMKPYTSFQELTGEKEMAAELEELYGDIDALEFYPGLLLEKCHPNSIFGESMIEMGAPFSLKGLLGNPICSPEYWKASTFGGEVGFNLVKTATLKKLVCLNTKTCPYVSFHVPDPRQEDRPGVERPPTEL
Procedure: as §1

COX-2 [5] = target: T1, COX-2; parameters: method as in PMID 29492489, PMID 31617517; settings: isolated isoenzymes; cited from earlier work
COX-1 [6] = target: T2, COX-1; parameters: method as in PMID 29492489, PMID 31617517; settings: isolated isoenzymes; cited from earlier work

Row | Structure (SMILES) | Stability in aqueous environment [1] | Inhibition of PGE2 synthesis ([2]; 10 µM) [%] | Inhibition of COX-2 (COX-2 [3]; 1 µM) [%] | Inhibition of COX-2 (COX-2 [3]; 10 µM) [%] | Inhibition of COX-1 (COX-1 [4]; 1 µM) [%] | Inhibition of COX-1 (COX-1 [4]; 10 µM) [%] | Concentration causing significant effects on COX-2 (COX-2 [5]) | Concentration causing significant effects on COX-1 (COX-1 [6]) | inhibition at 10 µM ([2]; Homo sapiens) [%]
1 | C=C.O.[Cl][Pt-]([Cl])[Cl].[K+] [Zeise’s salt] | not stable | 24.5 | 1.5 | 8.3 | 37.3 | 94.4 |  |  | 
2 | CC(=O)Oc1ccccc1C(=O)O [ASA, Acetylsalicylic acid] |  |  |  |  |  |  | higher than 100 µM | higher than 100 µM | 17.9
